Paper PMC9068610, “Biliverdin regulates NR2E3 and zebrafish retinal photoreceptor development” (Scientific Reports, 2022)
Positions count from the first letter of the chain named.

How the values were obtained:
Assay type in all cases: binding
NR2E3 [1] = molecular target: T1, NR2E3 (Homo sapiens, UniProt Q9Y5X4, R311Q); test: visible absorbance titration
T1 construct: MBP-NR2E3 LBD R311Q variant
T1 sequence (Q9Y5X4 164-410 R311Q): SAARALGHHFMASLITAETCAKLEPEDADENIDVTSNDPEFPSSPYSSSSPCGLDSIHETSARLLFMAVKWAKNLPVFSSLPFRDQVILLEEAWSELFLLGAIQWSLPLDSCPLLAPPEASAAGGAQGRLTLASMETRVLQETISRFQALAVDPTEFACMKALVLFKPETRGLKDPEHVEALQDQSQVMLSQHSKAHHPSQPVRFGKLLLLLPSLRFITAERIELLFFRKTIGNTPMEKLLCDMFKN

NR2E3 [2] = molecular target: T2, NR2E3 (Homo sapiens, UniProt Q9Y5X4); test: visible absorbance titration; also gel filtration co-purification with LC-MS
T2 construct: MBP-NR2E3 LBD (amino acid residues 164–410 of 410 residue NR2E3)
T2 sequence (Q9Y5X4 164-410): T1 sequence (Q9Y5X4 164-410 R311Q) with Q148R

zebrafish NR2E3 = molecular target: T3, zebrafish NR2E3 (Danio rerio, UniProt Q5U3F3); test: visible absorbance titration
T3 construct: MBP-DrNR2E3 LBD
T3 sequence (Q5U3F3 178-419 limits assumed): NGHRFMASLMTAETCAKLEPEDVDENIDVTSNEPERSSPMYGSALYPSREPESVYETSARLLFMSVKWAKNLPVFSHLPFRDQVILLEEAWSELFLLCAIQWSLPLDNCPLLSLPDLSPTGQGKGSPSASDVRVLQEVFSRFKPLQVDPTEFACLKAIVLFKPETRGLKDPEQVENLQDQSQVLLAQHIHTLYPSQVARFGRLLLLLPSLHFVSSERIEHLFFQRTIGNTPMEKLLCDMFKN

In the case of `C=CC1=C(C)/C(=C/C2=NC(=C\c3[nH]c(/C=C4\NC(=O)C(C)=C4C=C)c(C)c3CCC(=O)O)/C(CCC(=O)O)=C2C)NC1=O` [biliverdin], the Kd (NR2E3 [1]) is reported as 9 µM, the Kd (NR2E3 [2]) is reported as 0.2 µM and the visible absorbance titration (zebrafish NR2E3) is reported as “the spectrum of biliverdin showed changes similar to the one observed with human NR2E3^LBD”.
